Patent US20040029965A1, “Formulations for reducing or eliminating toxicity of enviromental hormones containing ursodeoxycholic acid” (priority 2000, published 2004)

Key:
Type in all cases: in vivo
[1] = tested on: C57B1/6J mice; assay: Changes in body weight of mice after a single subcutaneous injection of TCDD
Method: (§1) Male C57B1/6J mice of 5 weeks old having the average weight of 18-22 g which had been bred in CRJ (Charles River in Japan) were purchased and used in this example as experimental animals. Those mice were acclimated under the constant breeding condition, i.e. the temperature of 24±1° C., the humidity of 60±10% and the light and darkness cycle of 12 hours, for one week and thereafter, utilized in the experiment.
The Experimental animals were supplied with Purina powdered feed (purchased from Hae Eun Trade) and supplied with water ad libitum. All the animals were weighed twice a week during experimentation.
(§2) 2,3,7,8-tetrachlorodibenzo-p-dioxin (TCDD) dissolved in toluene (purity of 95% or more as a result of gas chromatography analysis), manufactured by Chem. Services Inc. in USA, was volatilized with nitrogen to obtain powder. The obtained powder was dissolved in a mixed solvent containing acetone and corn oil with a volume ratio of 1:6. The resulting solution each containing 110, 27.5 and 6.9 μg/kg of TCDD was subcutaneously injected to mice at a volume of 5 ml per body weight. […] The mice were supplied with the feed from 10 days before (pre-administration) to 60 days after administration of TCDD (post-administration).
(§3) The results are expressed as Mean±Standard Deviation values. For statistical analysis of the body weight, feed and water uptake, biochemical findings, hematological findings and the weight of organ in an acute toxicity test, verification was performed by one way analysis of variance (ANOVA) in case of equal distribution. In case significance was recognized in ANOVA, the Student's t-test was performed in the levels of p<0.05 and p<0.01.

[2] = tested on: C57B1/6J mice; assay: Blood (serum) biochemical changes in mice by a single subcutaneous injection of TCDD
Method: as §1, §2
(§4) Upon completion of the experiment for 60 days, the experimental animals were fasted for 24 hours and anesthetized with ether. Then, they were abdominally incised and blood was gathered from abdominal vena cava. They were sacrificed by the release of blood. Liver, kidneys, testes and epididymides were extracted and all the extracted organs were weighed. Only the testes were separately kept and observed under optical and electron microscopes. For biochemical finding test, serum was separated from blood with a centrifuge and the separated serum was analyzed with an automated blood biochemical analyzer, Dimension (Dupont, USA). Blood was put to another blood gathering bottle and then, analyzed with an automated blood cell analyzer, Celldyn (Abbott, USA).
as §3
For biochemical findings in the serum, the levels of glucose (GLU), GOT, GPT, Triglyceride (TG), high density lipoprotein (HDL-C), low density lipoprotein (LDL-C) and alkaline phosphatase (ALP) in serum were measured and the results are shown in the following.

[3] = tested on: C57B1/6J mice; assay: Electron microscopy of testes (cellular microstructures); settings: TCDD 27.5 μg/kg + 0.5% by weight of UDCA; FIG. 10
Method: as §2
as §4, with “(Abbott, USA). […]” for “(Abbott, USA).”

[4] = TCDD 6.9 μg/kg + UDCA 0.125 wt %
[5] = TCDD 6.9 μg/kg + UDCA 0.25 wt %
[6] = TCDD 27.5 μg/kg + UDCA 0.125 wt %
[7] = TCDD 27.5 μg/kg + UDCA 0.25 wt %
[8] = TCDD 27.5 μg/kg + UDCA 0.5 wt %

C[C@H](CCC(=O)O)[C@H]1CC[C@H]2[C@@H]3[C@@H](O)C[C@@H]4C[C@H](O)CC[C@]4(C)[C@H]3CC[C@]12C [UDCA, 3α, 7β-dihydroxy-5β-cholanoic acid]
body weight ([1]; TCDD 110.0 μg/kg + UDCA 0.25 wt %, 22 days): 19.69 ± 1.03
body weight ([1]; TCDD 110.0 μg/kg + UDCA 0.25 wt %, 32 days): 18.78 ± 1.14
body weight ([1]; TCDD 110.0 μg/kg + UDCA 0.25 wt %, 39 days): 14.26
body weight ([1]; TCDD 110.0 μg/kg + UDCA 0.25 wt %, 50 days): 14.85
body weight ([1]; TCDD 110.0 μg/kg + UDCA 0.25 wt %, 59 days): 17.10
Weight (body weight) ([1]; TCDD 110.0 μg/kg + UDCA 0.25 wt %, at sacrifice): 18.53 ± 3.79 g
body weight ([1]; TCDD 110.0 μg/kg + UDCA 0.5 wt %, 0 day): 19.71 ± 0.14
body weight ([1]; TCDD 110.0 μg/kg + UDCA 0.5 wt %, 12 days): 20.52 ± 0.32
body weight ([1]; TCDD 110.0 μg/kg + UDCA 0.5 wt %, 22 days): 21.15 ± 0.82
body weight ([1]; TCDD 110.0 μg/kg + UDCA 0.5 wt %, 32 days): 20.76 ± 1.04
body weight ([1]; TCDD 110.0 μg/kg + UDCA 0.5 wt %, 39 days): 19.81 ± 1.37
body weight ([1]; TCDD 110.0 μg/kg + UDCA 0.5 wt %, 50 days): 18.19 ± 1.80
body weight ([1]; TCDD 110.0 μg/kg + UDCA 0.5 wt %, 59 days): 18.53 ± 1.59
ALP [2, 4]: 66.78 ± 7.21 IU/l
GLU [2, 4]: 128.00 ± 27.26 mg/dL
GOT [2, 4]: 49.80 ± 2.74 IU/l
GPT [2, 4]: 23.50 ± 8.32 IU/l
HDL-C [2, 4]: 45.67 ± 2.74 mg/dL
LDL-C [2, 4]: 14.56 ± 6.28 mg/dL
TG [2, 4]: 79.56 ± 1129 mg/dL
ALP [2, 5]: 72.05 ± 6.63 IU/l
GLU [2, 5]: 104.60 ± 24.87 mg/dL
GOT [2, 5]: 57.30 ± 4.83 IU/l
GPT [2, 5]: 24.00 ± 6.39 IU/l
HDL-C [2, 5]: 46.30 ± 5.08 mg/dL
LDL-C [2, 5]: 21.20 ± 5.25 mg/dL
TG [2, 5]: 75.90 ± 11.55 mg/dL
ALP ([2]; TCDD 6.9 μg/kg + UDCA 0.5 wt %): 85.24 ± 10.28 IU/l
GLU ([2]; TCDD 6.9 μg/kg + UDCA 0.5 wt %): 125.50 ± 14.98 mg/dL
GOT ([2]; TCDD 6.9 μg/kg + UDCA 0.5 wt %): 47.11 ± 1.9 IU/l
GPT ([2]; TCDD 6.9 μg/kg + UDCA 0.5 wt %): 18.78 ± 5.07 IU/l
HDL-C ([2]; TCDD 6.9 μg/kg + UDCA 0.5 wt %): 44.83 ± 2.04 mg/dL
LDL-C ([2]; TCDD 6.9 μg/kg + UDCA 0.5 wt %): 28.33 ± 4.63 mg/dL
TG ([2]; TCDD 6.9 μg/kg + UDCA 0.5 wt %): 84.20 ± 7.66 mg/dL
ALP [2, 6]: 75.14 ± 18.33 IU/l
GLU [2, 6]: 55.22 ± 9.34 mg/dL
GOT [2, 6]: 75.22 ± 6.38 IU/l
GPT [2, 6]: 54.67 ± 23.28 IU/l
HDL-C [2, 6]: 34.78 ± 4.35 mg/dL
LDL-C [2, 6]: 2.40 ± 1.14 mg/dL
TG [2, 6]: 98.78 ± 17.14 mg/dL
ALP [2, 7]: 79.63 ± 6.07 IU/l
GLU [2, 7]: 82.44 ± 13.04 mg/dL
GOT [2, 7]: 58.67 ± 5.54 IU/l
GPT [2, 7]: 42.11 ± 22.05 IU/l
HDL-C [2, 7]: 37.44 ± 3.64 mg/dL
LDL-C [2, 7]: 4.29 ± 4.03 mg/dL
TG [2, 7]: 97.00 ± 17.68 mg/dL
ALP [2, 8]: 80.57 ± 14.52 IU/l
GLU [2, 8]: 64.22 ± 9.35 mg/dL
GOT [2, 8]: 96.67 ± 31.63 IU/l
GPT [2, 8]: 45.38 ± 21.74 IU/l
HDL-C [2, 8]: 47.00 ± 7.66 mg/dL
LDL-C [2, 8]: 15.33 mg/dL
TG [2, 8]: 133.33 ± 13.17 mg/dL
heads of sperms, electron microphotograph [3]: Normal shapes of sperm heads were retained
